From the NIST ThermoML archive (doi:10.1016/j.jct.2011.03.019)

Details: Liquid, Vibrating tube method

CCCC[n+]1cccc(C)c1.F[B-](F)(F)F [1-butyl-3-methylpyridinium tetrafluoroborate]
Details | mass density [kg/m3]
283.12 K, 2024 kPa | 1194.21
283.13 K, 5410 kPa | 1195.69
283.14 K, 10608 kPa | 1197.94
283.16 K, 101 kPa | 1192.91
283.16 K, 20395 kPa | 1202.09
283.16 K, 29989 kPa | 1206.06
283.16 K, 40399 kPa | 1210.24
283.16 K, 50021 kPa | 1214
283.16 K, 59880 kPa | 1217.75
283.16 K, 70001 kPa | 1221.48
283.16 K, 80055 kPa | 1225.07
283.16 K, 89979 kPa | 1228.5
283.16 K, 99226 kPa | 1231.6
293.13 K, 2373 kPa | 1187.65
293.15 K, 101 kPa | 1185.85
293.15 K, 5192 kPa | 1188.92
293.15 K, 19915 kPa | 1195.44
293.15 K, 29975 kPa | 1199.74
293.15 K, 40033 kPa | 1203.9
293.15 K, 49990 kPa | 1207.91
293.15 K, 60026 kPa | 1211.82
293.15 K, 69993 kPa | 1215.58
293.15 K, 90002 kPa | 1222.75
293.15 K, 99008 kPa | 1225.82
293.16 K, 79917 kPa | 1219.2
293.17 K, 10105 kPa | 1191.13
298.13 K, 101 kPa | 1182.41
298.15 K, 1023 kPa | 1183.65
298.15 K, 5014 kPa | 1185.49
298.15 K, 10024 kPa | 1187.78
298.15 K, 19956 kPa | 1192.22
298.15 K, 29784 kPa | 1196.48
298.15 K, 39954 kPa | 1200.76
298.15 K, 49921 kPa | 1204.82
298.15 K, 59784 kPa | 1208.71
298.15 K, 69521 kPa | 1212.43
298.15 K, 79326 kPa | 1216.05
298.15 K, 89784 kPa | 1219.77
298.15 K, 99965 kPa | 1223.26
313.13 K, 101 kPa | 1172.19
313.13 K, 10051 kPa | 1177.79
313.15 K, 2471 kPa | 1174.15
313.15 K, 5142 kPa | 1175.44
313.15 K, 39901 kPa | 1191.32
313.15 K, 50020 kPa | 1195.6
313.15 K, 59990 kPa | 1199.68
313.15 K, 70046 kPa | 1203.63
313.15 K, 79830 kPa | 1207.34
313.16 K, 30021 kPa | 1186.99
313.16 K, 89989 kPa | 1211.04
313.17 K, 19949 kPa | 1182.42
313.17 K, 99194 kPa | 1214.26
323.14 K, 101 kPa | 1165.48
333.13 K, 2503 kPa | 1160.47
333.14 K, 101 kPa | 1158.81
333.14 K, 39760 kPa | 1178.53
333.15 K, 20056 kPa | 1169.28
333.15 K, 29979 kPa | 1174.02
333.15 K, 79731 kPa | 1195.25
333.15 K, 89986 kPa | 1199.09
333.15 K, 99773 kPa | 1202.59
333.16 K, 5448 kPa | 1161.99
333.16 K, 50021 kPa | 1183.09
333.16 K, 70003 kPa | 1191.43
333.17 K, 10715 kPa | 1164.66
333.17 K, 60243 kPa | 1187.44
343.14 K, 101 kPa | 1152.1
353.12 K, 6509 kPa | 1148.81
353.13 K, 8955 kPa | 1150.12
353.14 K, 2790 kPa | 1146.79
353.15 K, 101 kPa | 1145.3
353.15 K, 90011 kPa | 1186.9
353.15 K, 99259 kPa | 1190.28
353.16 K, 29979 kPa | 1160.91
353.16 K, 39909 kPa | 1165.7
353.16 K, 50013 kPa | 1170.38
353.16 K, 60153 kPa | 1174.86
353.16 K, 69979 kPa | 1179.02
353.16 K, 80426 kPa | 1183.23
353.17 K, 21342 kPa | 1156.58
363.14 K, 101 kPa | 1138.4
373.12 K, 60192 kPa | 1162.13
373.13 K, 50003 kPa | 1157.47
373.14 K, 39996 kPa | 1152.66
373.14 K, 70039 kPa | 1166.42
373.14 K, 99035 kPa | 1177.8
373.15 K, 5373 kPa | 1134.29
373.15 K, 29979 kPa | 1147.62
373.15 K, 90014 kPa | 1174.46
373.16 K, 2495 kPa | 1132.64
373.16 K, 10198 kPa | 1137.01
373.16 K, 20336 kPa | 1142.55
373.16 K, 80221 kPa | 1170.63
393.15 K, 10222 kPa | 1123.08
393.15 K, 20024 kPa | 1128.69
393.15 K, 30013 kPa | 1134.16
393.15 K, 89993 kPa | 1161.76
393.15 K, 99831 kPa | 1165.43
393.16 K, 40133 kPa | 1139.44
393.16 K, 49970 kPa | 1144.34
393.16 K, 60110 kPa | 1149.13
393.16 K, 70029 kPa | 1153.57
393.16 K, 80159 kPa | 1157.85
393.17 K, 2485 kPa | 1118.49
393.17 K, 5300 kPa | 1120.18
